# According to patent US7141691B2, “Protein-bound derivatives of platinum complexes containing cyclobutane1, 1-dicarboxyllate ligands” (KTB Tumorforschungs GmbH, priority 2003, dated 2006):
# Tested on: MaTu (mammary carcinoma)
# Test: Efficacy in vivo, MaTu tumor model in naked mice (change in tumor volume)
# Details: DACH-Pt-CB-1-Mal 75 and 100 mg/kg i.v. once on day 7, carboplatin 100 mg/kg once on day 7 or 75 mg/kg on days 7 and 14
# Method: The invention is elucidated in more detail by the following examples in conjunction with the figures. […] Animals: naked mice Tumor model: MaTu (mammary carcinoma) Treatment: DACH-Pt-CB-1-Mal (75 and 100 mg/kg) and carboplatin (100 mg/kg) once on day 7, carboplatin (75 mg/kg) on each of days 7 and 14; i.v. (carboplatin and derivatives each in 0.15 0.3 ml glucose phosphate buffer pH 6.5).
smiles,measurement,value
"O=C(CCOCCN1C(=O)C=CC1=O)OC1CC2(C1)C(=O)[O][Pt]1([NH]C3CCCC[C@H]3[NH]1)[O]C2=O (stereo partly drawn) [DACH-Pt-CB-1-Mal, trans-(R,R/S,S)-cyclohexane-1,2-diaminoplatinum(II)-[3-(6-maleinimido-4-oxacaproyl)cyclobutane-1,1-dicarboxylate]]",in vivo efficacy (change in the tumor volume) compared to carboplatin,increased compared to carboplatin
